Read-outs that look alike come from different tables or passages of the source.
Tests used:
sows (PIC Line C22) = assay: Sow feeding trial: L-carnitine and/or chromium tris-picolinate top dress over two parities, reproductive performance; assay type: in vivo; conditions: for First service FR %: first service farrowing rate; for No. of sows Weaned parity 1: Second parity section; for first service farrowing rate: parity 2; for No. of sows Farrowed in parity 1 / No. of sows Farrowed in parity 2 / Number of sows removed from experiment: sow longevity table
Experimental: This experiment was conducted on a commercial 1,500 sow farrow-to-wean operation in central Kansas and used 599 sows (PIC Line C22). Experimental treatments were arranged in a 2×2 factorial with main effects of added L-carnitine (0 or 50 ppm) and chromium tris-picolinate (0 or 200 ppb). Sows were started on test on the first day of breeding. Each sow remained on the same treatment through gestation, lactation, and through a second gestation period (2 parities). During gestation, all sows were fed a grain sorghum-soybean meal-based diet formulated to contain 0.65% lysine, 0.83% Ca, and 0.76% P. In lactation, all sows were fed a grain sorghum-soybean meal based diet formulated to contain 1.10% lysine, 0.90% Ca, and 0.80% P (Table 3). Dietary treatments were provided via a corn-based top dress fed at 30 g/d. The top dress was formulated to provide 90 mg/d and 250 mg/d carnitine in gestation and lactation, respectively. Chromium tris-picolinate was provided at 360 mcg/d and 1,000 mcg/d during gestation and lactation, respectively. These inclusions were calculated to provide 50 mg/kg carnitine (CarniFeed, Lonza Inc., NJ) and 200 mcg/kg chromium (Chromapure, Lonza Inc., NJ) when sows were fed 4 lb/d of the gestation diet and 11 lb/d of the lactation diet. The top dress was added to the top of the feed box between meals in order to be consumed with the rest of the diet. The top dress was color-coded (1% dyed corncobs) by treatment to assure proper distribution of experimental treatments.
At farrowing, the number of pigs born alive, as stillborn, as mummies, and total born were recorded. Total born was the sum of the number of pigs born alive, stillborn, and mummies. Sows were rebred after weaning (15 d lactation) and remained on the same treatment until farrowing a second litter. […] Sows that were bred at the start of the study, but were later found open, were removed from the trial. Procedures and data collection were identical for the second gestation and lactation period. However, dietary treatments were not administered during the second lactation period.
Calculations were made to determine the total number of pigs born, born alive, as stillborns, or as mummies per sow for the two parities. Total number of pigs were calculated using only sows that initially farrowed, then completed the second parity, as well as calculated from all the sows that were actually started on test.
Data were analyzed using the MIXED procedure of SAS. Sow was the experimental unit for the analysis with parity, previous lactation length, and/or week of farrowing as a covariate (Table IV) for total born, number of pigs born alive, mummies, and stillborn. A chi-square statistic was calculated to determine differences among treatments when analyzing percent in estrus and farrowing rate.

sows [1] = conditions: cited from earlier work
sows [2] = conditions: 200 μg/kg of chromium fed to sows; Lindemann et al. (1995b); cited from earlier work
[3] = all sows started on test for two parities
[4] = sows that completed parity one, two parities
[5] = L-carnitine added to gestating sow diets, Musser et al. (1999b)
[6] = 200 μg/kg of chromium, Lindemann et al. (1995b), Hagen et al. (2000)

Molecule	% estrus by d 7 (sows (PIC Line C22); First parity) [%]	% estrus by d 18 (sows (PIC Line C22); First parity) [%]	No. of pigs Born alive (sows (PIC Line C22); First parity)	No. of pigs Mummies (sows (PIC Line C22); First parity)	No. of pigs Stiliborn (sows (PIC Line C22); First parity)	No. of pigs Total born (sows (PIC Line C22); First parity)	No. of sows Farrowed (sows (PIC Line C22); First parity)	WEI d (wean to estrus interval) (sows (PIC Line C22); First parity) [days]	First service FR % (sows (PIC Line C22); First parity) [%]	% estrus by d 7 (sows (PIC Line C22); Second parity) [%]	% estrus by d 18 (sows (PIC Line C22); Second parity) [%]	No. of pigs Born alive (sows (PIC Line C22); Second parity)	No. of pigs Mummies (sows (PIC Line C22); Second parity)	No. of pigs Stiliborn (sows (PIC Line C22); Second parity)	No. of pigs Total born (sows (PIC Line C22); Second parity)	No. of sows Bred by d 18 (sows (PIC Line C22); Second parity)	No. of sows Farrowed (sows (PIC Line C22); Second parity)	Percentage of weaned parity 1 sows that farrowed parity 2 (sows (PIC Line C22); Second parity) [%]	WEI (wean to estrus interval) (sows (PIC Line C22); Second parity)	No. of sows Weaned parity 1 (sows (PIC Line C22))	further results
C[N+](C)(C)C[C@H](O)CC(=O)[O-] [Carnitine, L-carnitine]	88.6	91.5	9.8	0.26	0.98	11.4	140	4.6	91.9	76.9	80.8	9.9	0.33	1.02	11.2	128	104	73.9	4.7	140	First service FR % (sows (PIC Line C22); Second parity): 81.3%; Total pigs per sow, Born alive (sows (PIC Line C22); [3]): 16.3; Total pigs per sow, Mummies (sows (PIC Line C22); [3]): 0.5; Total pigs per sow, Stillborn (sows (PIC Line C22); [3]): 1.6; Total pigs per sow, Total born (sows (PIC Line C22); [3]): 18.4; first service farrowing rate (sows (PIC Line C22); result in words): did not influence; No. of sows Farrowed in parity 1 (sows (PIC Line C22)): 140; No. of sows Farrowed in parity 2 (sows (PIC Line C22)): 104; Number of sows removed from experiment (sows (PIC Line C22)): 46; Total pigs per sow, Born alive (sows (PIC Line C22); [4]): 17.6; Total pigs per sow, Mummies (sows (PIC Line C22); [4]): 0.5; Total pigs per sow, Stillborn (sows (PIC Line C22); [4]): 1.7; Total pigs per sow, Total born (sows (PIC Line C22); [4]): 19.8; farrowing rate, total number of pigs born or born alive (sows [1]; 50 mg/kg of carnitine during lactation, three experiments, Musser et al. (1999a)): minimal differences; farrowing rate (sows [1]; [5]): no effect; number of pigs born alive in the subsequent parity (sows [1]; [5]): increase; total number of pigs born and born alive (sows [1]; L-carnitine fed during gestation, Musser et al. (1999a)): increases
chromium tris-picolinate	86.7	91.7	10.2	0.39	1.26	11.5	138	4.7	95.5	81.0	82.9	9.5	0.40	1.09	11.0	127	102	74.3	4.6	138	plasma insulin and insulin to glucose ratio (sows [2]): decreased; First service FR % (sows (PIC Line C22); Second parity): 79.7%; Total pigs per sow, Born alive (sows (PIC Line C22); [3]): 16.2; Total pigs per sow, Mummies (sows (PIC Line C22); [3]): 0.7; Total pigs per sow, Stillborn (sows (PIC Line C22); [3]): 2.0; Total pigs per sow, Total born (sows (PIC Line C22); [3]): 18.8; farrowing rate (sows (PIC Line C22); our study, result in words): increases; number born alive (sows (PIC Line C22); our study, result in words): no improvements; number of stillborn pigs per litter (sows (PIC Line C22); our study, result in words): tendencies to increase; first service farrowing rate (sows (PIC Line C22); result in words): did not influence; No. of sows Farrowed in parity 1 (sows (PIC Line C22)): 138; No. of sows Farrowed in parity 2 (sows (PIC Line C22)): 102; Number of sows removed from experiment (sows (PIC Line C22)): 45; Total pigs per sow, Born alive (sows (PIC Line C22); [4]): 16.8; Total pigs per sow, Mummies (sows (PIC Line C22); [4]): 0.6; Total pigs per sow, Stillborn (sows (PIC Line C22); [4]): 2.1; Total pigs per sow, Total born (sows (PIC Line C22); [4]): 19.5; farrowing rate (sows [1]; [6]): no effects; number of pigs born alive (sows [1]; [6]): increases

From patent US7169770B2, “Method of enhancing reproductive performance in sows” (priority 2001, dated 2007)
